Measurements as given in ChEMBL document CHEMBL6121044, “Discovery of Novel Spirocyclic MAT2A Inhibitors Demonstrating High In Vivo Efficacy in MTAP-Null Xenograft Models” (J Med Chem, 2025).
In brackets after ≈: the same amount, converted by molar mass.

Assays:
[1] = Microsomal metabolic stability in mouse liver microsomes assessed as half life; assay type: ADME, Microsome
[2] = Half life in male ICR mouse at 2 mg/kg, iv measured upto 24 hrs by LC-MS/MS analysis; assay type: ADME, organism-based; settings: in vivo
[3] = Apparent permeability across apical to basolateral in human Caco-2 cells; assay type: ADME, cell-based; settings: read-out: permeability
[4] = Half life in male ICR mouse at 10 mg/kg, po measured upto 24 hrs by LC-MS/MS analysis; assay type: ADME, organism-based; settings: in vivo
[5] = molecular target: T1, UDP-glucuronosyltransferase 1A1 (Homo sapiens, UniProt P22309); assay: Inhibition of UGT1A1 (unknown origin)
T1 sequence (P22309 whole entry): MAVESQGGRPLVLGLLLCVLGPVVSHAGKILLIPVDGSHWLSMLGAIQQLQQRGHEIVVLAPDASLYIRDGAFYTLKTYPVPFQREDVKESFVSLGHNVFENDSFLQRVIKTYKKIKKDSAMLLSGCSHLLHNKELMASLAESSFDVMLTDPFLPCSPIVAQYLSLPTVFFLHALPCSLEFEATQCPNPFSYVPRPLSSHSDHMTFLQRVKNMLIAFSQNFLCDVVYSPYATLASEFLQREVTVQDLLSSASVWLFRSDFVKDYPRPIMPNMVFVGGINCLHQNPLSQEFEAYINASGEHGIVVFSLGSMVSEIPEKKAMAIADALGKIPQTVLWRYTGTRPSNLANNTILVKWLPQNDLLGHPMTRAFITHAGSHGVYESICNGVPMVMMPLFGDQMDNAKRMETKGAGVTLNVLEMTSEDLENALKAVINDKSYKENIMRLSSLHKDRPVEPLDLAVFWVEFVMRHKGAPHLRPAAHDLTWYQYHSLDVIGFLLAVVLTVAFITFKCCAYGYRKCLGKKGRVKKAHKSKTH

[6] = molecular target: T2, S-adenosylmethionine synthase isoform type-2 (Homo sapiens, UniProt P31153); assay: Inhibition of MAT2A in wild type human HCT-116 cells assessed as inhibition of S-adenosylmethionine; assay type: cell-based
[7] = molecular target: T3, Cytochrome P450 1A2 (Homo sapiens, UniProt P05177); assay: Inhibition of CYP1A2 (unknown origin); assay type: ADME
T3 sequence (P05177 whole entry): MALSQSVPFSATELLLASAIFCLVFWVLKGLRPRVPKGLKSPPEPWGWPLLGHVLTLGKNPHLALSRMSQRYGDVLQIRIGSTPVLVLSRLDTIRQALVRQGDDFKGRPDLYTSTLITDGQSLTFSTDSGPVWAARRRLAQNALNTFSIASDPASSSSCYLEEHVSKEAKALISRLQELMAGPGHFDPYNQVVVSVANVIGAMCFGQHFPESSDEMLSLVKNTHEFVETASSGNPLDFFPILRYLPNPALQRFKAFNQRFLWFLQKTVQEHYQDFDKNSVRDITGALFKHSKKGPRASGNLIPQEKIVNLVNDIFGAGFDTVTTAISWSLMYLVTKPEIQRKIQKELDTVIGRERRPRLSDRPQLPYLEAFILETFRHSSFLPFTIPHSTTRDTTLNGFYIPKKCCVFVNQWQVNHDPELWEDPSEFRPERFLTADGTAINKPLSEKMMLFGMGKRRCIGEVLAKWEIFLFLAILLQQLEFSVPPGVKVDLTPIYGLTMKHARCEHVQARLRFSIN

[8] = Half life in beagle dog at 2 mg/kg, iv measured upto 24 hrs upto 24 hrs by LC-MS/MS analysis; assay type: ADME, organism-based, Canis lupus familiaris; settings: in vivo
[9] = Protein binding in mouse brain assessed as unbound fraction; assay type: ADME, tissue-based
[10] = Efflux ratio of apparent permeability in human Caco-2 cells; assay type: ADME, cell-based
[11] = Hepatic metabolic stability in mouse hepatocyte assessed as half life; assay type: ADME, cell-based; settings: hepatocytes
[12] = Selectivity index, ratio of IC50 for antiproliferative activity against wild type human HCT-116 cells to IC50 for antiproliferative activity against MTAP-knock out human HCT-116 cells
[13] = Hepatic metabolic stability in Cynomolgus monkey hepatocyte assessed as half life; assay type: ADME, cell-based, Macaca fascicularis; settings: hepatocytes
[14] = Solubility of the compound in FaSSIF; assay type: physicochemical
[15] = Microsomal metabolic stability in Cynomolgus monkey liver microsomes assessed as half life; assay type: ADME, Macaca fascicularis, Microsome
[16] = test system: HCT-116; assay: Antiproliferative activity against MTAP-knock out human HCT-116 cells assessed as maximal inhibition rate at 10 uM measured after 5 days by CTG assay relative to control; assay type: functional; settings: time 5 day
[17] = Microsomal metabolic stability in dog liver microsomes assessed as half life; assay type: ADME, Canis lupus familiaris, Microsome
[18] = AUC (0 to infinity) in male ICR mouse at 10 mg/kg, po and 2 mg/kg, iv measured upto 24 hrs; assay type: ADME, organism-based; settings: in vivo
[19] = Solubility of the compound in pH 7.4 phosphate buffer; assay type: physicochemical
[20] = Cmax in male Sprague-Dawley rat at 10 mg/kg, po measured upto 24 hrs upto 24 hrs by LC-MS/MS analysis; assay type: ADME, organism-based; settings: in vivo
[21] = molecular target: Cytochrome P450 2D6 (Homo sapiens, UniProt P10635); assay: Inhibition of CYP2D6 (unknown origin); assay type: ADME
[22] = Clearance in male ICR mouse at 10 mg/kg, po and 2 mg/kg, iv measured upto 24 hrs; assay type: ADME, organism-based; settings: in vivo
[23] = molecular target: T4, Cytochrome P450 2B6 (Homo sapiens, UniProt P20813); assay: Inhibition of CYP2B6 (unknown origin); assay type: ADME
T4 sequence (P20813 whole entry): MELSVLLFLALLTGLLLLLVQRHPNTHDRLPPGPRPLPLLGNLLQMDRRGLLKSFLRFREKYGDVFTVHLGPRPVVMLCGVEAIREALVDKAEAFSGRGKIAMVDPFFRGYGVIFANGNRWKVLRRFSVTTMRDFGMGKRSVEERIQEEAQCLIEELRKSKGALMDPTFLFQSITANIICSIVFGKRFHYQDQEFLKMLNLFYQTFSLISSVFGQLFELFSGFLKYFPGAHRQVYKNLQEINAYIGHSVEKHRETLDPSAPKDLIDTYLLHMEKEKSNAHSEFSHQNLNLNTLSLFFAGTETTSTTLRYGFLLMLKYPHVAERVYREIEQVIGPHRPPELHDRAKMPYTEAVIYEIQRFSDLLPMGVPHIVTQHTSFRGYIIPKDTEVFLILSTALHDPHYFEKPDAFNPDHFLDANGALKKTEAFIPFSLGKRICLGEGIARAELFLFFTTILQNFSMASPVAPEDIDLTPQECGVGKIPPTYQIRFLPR

[24] = Lipophilicity, log P of the compound; assay type: physicochemical; settings: octanol/water
[25] = Plasma protein binding in cynomolgus monkey assessed as unbound fraction; assay type: ADME, cell-free, Macaca fascicularis
[26] = Dissociation constant, pKa of compound; assay type: physicochemical
[27] = Volume of distribution at steady state in male ICR mouse at 10 mg/kg, po and 2 mg/kg, iv measured upto 24 hrs; assay type: ADME, organism-based; settings: in vivo
[28] = molecular target: T2, S-adenosylmethionine synthase isoform type-2; assay: Inhibition of MAT2A in MTAP-knock out human HCT-116 cells assessed as inhibition of S-adenosylmethionine level; assay type: cell-based
[29] = Solubility of the compound in FaSSGF; assay type: physicochemical
[30] = Hepatic metabolic stability in human hepatocyte assessed as half life; assay type: ADME, cell-based; settings: hepatocytes

T2 sequence (P31153 whole entry, canonical isoform): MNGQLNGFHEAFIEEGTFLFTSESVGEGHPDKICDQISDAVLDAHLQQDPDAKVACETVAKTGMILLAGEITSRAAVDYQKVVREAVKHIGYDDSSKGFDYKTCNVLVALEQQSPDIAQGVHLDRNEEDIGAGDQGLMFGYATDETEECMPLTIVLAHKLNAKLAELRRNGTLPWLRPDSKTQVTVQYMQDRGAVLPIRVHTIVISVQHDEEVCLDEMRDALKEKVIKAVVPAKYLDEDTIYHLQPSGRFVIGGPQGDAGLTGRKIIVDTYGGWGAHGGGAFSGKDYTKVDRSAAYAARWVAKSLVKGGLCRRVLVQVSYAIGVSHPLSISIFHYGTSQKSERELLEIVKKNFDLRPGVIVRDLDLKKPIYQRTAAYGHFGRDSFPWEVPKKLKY
Chain of Cytochrome P450 2D6 (P10635 whole entry): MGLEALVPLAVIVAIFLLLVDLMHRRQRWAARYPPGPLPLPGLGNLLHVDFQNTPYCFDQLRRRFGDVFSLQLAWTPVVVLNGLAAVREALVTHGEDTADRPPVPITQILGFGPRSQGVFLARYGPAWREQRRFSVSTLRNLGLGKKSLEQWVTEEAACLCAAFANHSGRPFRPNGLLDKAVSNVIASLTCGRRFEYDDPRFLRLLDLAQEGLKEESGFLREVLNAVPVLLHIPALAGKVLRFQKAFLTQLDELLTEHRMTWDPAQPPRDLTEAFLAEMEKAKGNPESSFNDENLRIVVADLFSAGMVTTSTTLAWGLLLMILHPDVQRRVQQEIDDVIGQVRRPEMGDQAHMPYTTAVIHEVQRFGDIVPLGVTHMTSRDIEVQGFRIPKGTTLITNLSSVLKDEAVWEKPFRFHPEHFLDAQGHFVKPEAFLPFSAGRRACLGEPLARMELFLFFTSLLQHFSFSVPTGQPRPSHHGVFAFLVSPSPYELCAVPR

SMILES	half-life [1] [h]	half-life [2] [h]	Papp A→B [3] [×10⁻⁶ cm/s]	half-life [4] [h]	IC50 [5] [µM]	IC50 [6] [µM]	IC50 [7] [µM]	half-life [8] [h]	fraction unbound [9]	efflux ratio [10]	half-life [11] [h]	Selectivity Index [12]	half-life [13] [h]	solubility [14] [µM]	half-life [15] [h]	Imax [16] [%]	half-life [17] [h]	AUC(0-inf) [18] [ng·h/mL]	solubility [19] [µM]	Cmax [20] [ng/mL]	also measured
[2H]C([2H])([2H])NC1=NC(=O)[C@]2(CCc3ncccc32)c2cc(C(F)(F)F)ccc21	> 3.1	2.52	13.6	2.19	> 50	0.003	> 10	6.91	0.113	1.95	> 3.61	20	> 3.61	207 (≈ 72.1 µg/mL)	> 3.1	89.34	> 3.1	39600	173 (≈ 60.3 µg/mL)	8520	IC50 [21]: > 10 µM; clearance [22]: 7.98 mL/min/kg; IC50 [23]: > 10 µM; logP [24]: 1.85; fraction unbound [25]: 0.562; pKa [26]: 4.7; Vdss [27]: 1.7 L/kg; IC50 [28]: 0.004 µM; solubility [29]: 30.9 µM (≈ 10.8 µg/mL); half-life [30]: > 3.61 h
[2H]C([2H])([2H])NC1=NC(=O)[C@]2(CCc3ncccc32)c2cc(C(C)(F)F)ccc21	> 2.46	1.94	5.12	2.37	> 50	0.002	> 10	6.56	0.148	5.27	> 3.61	>181	> 3.61	208 (≈ 71.6 µg/mL)	> 3.1	100	> 3.1	24900	174 (≈ 59.9 µg/mL)	6100	IC50 [21]: > 10 µM; clearance [22]: 9.12 mL/min/kg; IC50 [23]: > 10 µM; logP [24]: 1.65; fraction unbound [25]: 0.519; pKa [26]: 4.9; Vdss [27]: 1.53 L/kg; IC50 [28]: 0.004 µM; solubility [29]: 79.9 µM (≈ 27.5 µg/mL); half-life [30]: > 3.61 h
